{"source": "patent US8466195B2", "about": "“Methods and compositions for treating complications of diabetes and vascular diseases using flavones” (Salk Institute for Biological Studies, priority 2009, dated 2013)", "key": {"[1]": {"tested_on": "STZ-diabetic rats", "assay": "Kidney function (urine albumin/creatinine ratio) in STZ-diabetic rats", "type": "in vivo, Sprague-Dawley rats", "settings": "25 mg/kg/day fisetin; 6 and 8 weeks after induction of diabetes", "procedure": "Urine albumin concentration was determined by competitive enzyme-linked immunoadsorbent assay using an Albuwell M kit (Exocell, Philadelphia, Pa.). Urine creatinine concentration was determined by Jaffe's reaction of alkaline picrate with creatinine using a Creatinine Companion kit (Exocell). Results are expressed as the urine albumin-to-creatinine ratio (micrograms per milligram).\nAdult female Sprague-Dawley rats were made diabetic with STZ and treated with vehicle or 25 mg/kg/day fisetin. Kidney function was assessed by measuring the albumin/creatinine ratio in the urine at 6 and 8 weeks following induction of diabetes. Fisetin reduced diabetes-induced proteinuria. Data are mean±SEM of N=7-8/group."}, "[2]": {"tested_on": "C-reactive protein", "assay": "Serum C-reactive protein in Akita mice (Western blot)", "type": "in vivo", "settings": "fisetin-rich diet", "procedure": "C-reactive protein in serum was measured by SDS-PAGE and Western blotting analysis of mouse serum using an antibody from R&D.\nC-reactive protein is an acute phase protein that increases during chronic inflammation such as is seen in diabetes. Equal amounts of serum from wild type, wild type+fisetin, Akita and Akita+fisetin mice were analyzed by SDS-PAGE and immunoblotting with an antibody to C-reactive protein. Samples from 6-7 mice were analyzed and the average intensity of the C-reactive protein band determined. The data were analyzed by ANOVA followed by Tukey's post test. *** P<0.001."}, "[3]": {"tested_on": "peripheral and CNS immune cells", "settings": "peripheral [17] and CNS [8] immune cells; cited from earlier work"}, "[4]": {"tested_on": "HT22 cells", "assay": "GSH level in HT22 cells", "type": "cell-based", "settings": "10 μM fisetin, absence or presence of 5 mM glutamate, 24 hr", "procedure": "As shown in panel (A) of FIG. 3, HT22 cells were untreated (ct) or treated with 10 μM fisetin (fis) in the absence of presence of 5 mM glutamate for 24 hr and GSH was measured enzymatically and normalized to protein. As shown in panel (B) of FIG. 3, HT22 cells in 96-well plates were treated with 5 mM glutamate and the indicated concentrations of fisetin. MTT reduction was measured after 24 hr."}, "[5]": {"tested_on": "Akita mice", "assay": "Kidney hypertrophy (kidney weight) in Akita mice", "type": "in vivo", "settings": "fisetin 0.05% in diet for 18 weeks", "procedure": "Male Akita mice were fed control diet or fisetin (0.05%) for 18 weeks beginning at 6 weeks of age. Kidney hypertrophy was assessed by weighing the kidneys. Kidney function was assessed by measuring the albumin/creatinine ratio in the urine. Fisetin reduced diabetes-induced renal hypertrophy and proteinuria. All data are mean±SD of N=5-7/group."}, "[6]": {"biological_target": "BSA (Bos taurus, UniProt P02769)", "sequence (P02769 25-607)": "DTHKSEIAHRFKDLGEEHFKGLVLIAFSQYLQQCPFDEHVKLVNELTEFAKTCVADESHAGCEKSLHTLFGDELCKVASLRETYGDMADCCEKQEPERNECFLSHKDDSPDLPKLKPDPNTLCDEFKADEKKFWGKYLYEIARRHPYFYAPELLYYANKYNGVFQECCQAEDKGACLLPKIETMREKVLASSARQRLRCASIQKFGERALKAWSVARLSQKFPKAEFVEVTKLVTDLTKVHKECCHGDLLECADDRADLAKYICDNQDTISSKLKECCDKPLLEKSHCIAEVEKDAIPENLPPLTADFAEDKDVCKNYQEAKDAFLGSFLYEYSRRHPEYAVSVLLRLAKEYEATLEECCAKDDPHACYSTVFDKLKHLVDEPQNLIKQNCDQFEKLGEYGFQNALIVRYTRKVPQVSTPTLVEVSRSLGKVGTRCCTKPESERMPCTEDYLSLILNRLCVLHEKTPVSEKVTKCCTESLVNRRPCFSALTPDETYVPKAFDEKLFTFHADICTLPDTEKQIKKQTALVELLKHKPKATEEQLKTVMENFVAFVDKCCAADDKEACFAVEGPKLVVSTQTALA", "assay": "Glycation of BSA by glucose (anti-CML Western blot and fluorescence assay)", "type": "biochemical", "settings": "100 mM glucose, 14 days 37° C., 100 μM fisetin; Western blotting with a-CML and fluorescence assay", "procedure": "(§1) In reference to FIG. 1, BSA was incubated with either 100 mM glucose (G) or 100 mM methylglyoxal (MG) for 14 days at 37° C. plus or minus 100 μM fisetin. The BSA was dialyzed vs. PBS run on SDS-PAGE and blotted with anti-carboxymethyl lysine (CML) (a glucose AGE) or anti-MG adducts from Dr. Brownlee. […] In FIG. 1, panel B, anti-MG only reacts with MG treated BSA and also causes protein polymerization. In FIG. 1, panel C, co-incubation with fisetin results in inhibition of glucose glycation in 2 assays, Western blotting with a-CML (BL, hatched bars) and a fluorescence assay for protein glycation (FL, clear bars). In FIG. 1, panel D, fisetin inhibited protein glycation caused by high glucose exposure of human brain microvascular cells. Cells were exposed to either 5 mM (−Glu) or 25 mM (+Glu) glucose for 5 days plus (F) or minus (C) 1 μM fisetin. Cells were then harvested and blotted with either anti-CML or MG antisera."}, "[7]": {"tested_on": "Akita mice", "assay": "Motor nerve conduction velocity in Akita mice", "type": "in vivo", "settings": "fisetin 0.05% in diet for 18 weeks", "procedure": "Conduction velocity of large myelinated motor fibers in the sciatic:tibial nerve system was measured in mice under isoflurane anesthesia with nerve temperature maintained at 37° C., as previously described (Calcutt et al. Diabetes 39:663-666, 1990). Briefly, stimulating electrodes were placed at the left sciatic notch and Achilles tendon and recording electrodes placed in the interosseus muscles of the ipsilateral hind paw. Electromyograms were recorded on a storage oscilloscope after stimulation at each site using single square waves (5 v, 0.05 ms) and motor nerve conduction velocity (MNCV) calculated using the peak to peak distance of the resulting M waves and the distance between the two stimulation sites. The median of 3 separate MNCV measurements was used to represent values for each mouse.\n(§2) Male Akita mice were fed control diet or fisetin (0.05%) for 18 weeks beginning at 6 weeks of age. Large fiber function was tested by measuring motor nerve conduction velocity and small fiber function by paw withdrawal to noxious heat. Diabetes-induced MNCV slowing and thermal hypoalgesia were ameliorated by fisetin treatment. All data are mean±SD of N=5-7/group. […] P<0.05."}, "[8]": {"tested_on": "Akita mice", "assay": "Thermal latency response of hind paw in Akita mice", "type": "in vivo", "settings": "fisetin 0.05% in diet for 18 weeks", "procedure": "Mice were placed in an observation chamber on the surface (floor temperature 30° C.) of a modified Hargreaves apparatus (UARD, San Diego, Calif.) and allowed to acclimate for 5 min. For measurement of thermal response latency, a heat source that warmed the chamber surface at approximately 1° C./sec was moved underneath the hind paw and the time to foot withdrawal recorded automatically. The procedure was repeated 4 times on the same paw at 5 min intervals and the median of values 2-4 used to represent the thermal response latency.\nas §2"}, "[9]": {"tested_on": "Akita mice", "assay": "Open field test in Akita mice", "type": "in vivo", "settings": "fisetin 0.05% in diet for 18 weeks", "procedure": "The open field test was performed using MED Associates hardware and the Activity Monitor software according to the manufacturer's instructions (MED Associates Inc, St. Albans, Vt., USA). The open-field activity monitoring system contains a subject containment environment (chamber), infrared (I/R) sources and sensors. To perform the test, each mouse was placed in the testing chamber and the activity tracked by the Activity Monitor software for 30 min. The scanning was done every 50 ms. The behavioral parameters derived from the open field test included the following: distance traveled, ambulatory time and counts, stereotypic counts and time, resting time, vertical counts and time, jumping counts and time, average velocity, and ambulatory episodes.\nMale Akita mice were fed control diet or fisetin (0.05%) for 18 weeks beginning at 6 weeks of age. Locomotor activity was measured in the open field test. Decreased locomotor activity is an indicator of elevated anxiety which is characteristic of diabetics in poor glycemic control. […] All data are mean±SD of N=5-7/group."}, "[10]": {"tested_on": "human brain microvascular cells", "assay": "Protein glycation in human brain microvascular cells exposed to glucose", "type": "cell-based", "settings": "1 μM fisetin", "procedure": "as §1"}}, "note": "Entries after “also recorded” stand apart in the source; their conditions may differ.", "data": [{"smiles": "O=c1c(O)c(-c2ccc(O)c(O)c2)oc2cc(O)ccc12", "note": "[fisetin, 2-(3,4-dihydroxyphenyl)-3,7-dihydroxychromen-4-one]", "values": [{"measurement": "diabetes-induced proteinuria (urine albumin/creatinine ratio)", "setting": "[1]", "value": "reduced"}, {"measurement": "diabetes-induced increase in serum C-reactive protein", "setting": "[2]", "value": "largely prevented"}, {"measurement": "anti-inflammatory activity", "setting": "[3]", "value": "anti-inflammatory activity"}, {"measurement": "GSH", "setting": "[4]", "value": "Upregulation"}, {"measurement": "diabetes-induced renal hypertrophy (kidney weight)", "setting": "[5]", "value": "greatly reduced"}, {"measurement": "diabetes-induced renal hypertrophy (kidney weight)", "setting": "[5]; listed as Fisetin", "value": "reduced"}, {"measurement": "glucose glycation of BSA", "setting": "[6]", "value": "inhibition"}, {"measurement": "diabetes-induced MNCV slowing", "setting": "[7]", "value": "ameliorated; also recorded: prevented"}, {"measurement": "thermal hypoalgesia (hind paw thermal latency)", "setting": "[8]", "value": "ameliorated; also recorded: prevented"}, {"measurement": "locomotor activity in the open field test (distance traveled, ambulatory episodes)", "setting": "[9]", "value": "restored to near normal values"}, {"measurement": "locomotor activity in the open field test (distance traveled, ambulatory episodes)", "setting": "[9]; listed as Fisetin", "value": "restored locomotor activity to nearly control levels"}, {"measurement": "increase of CML and MG adducts caused by high glucose", "setting": "[10]; 25 mM glucose 5 days", "value": "blocked, at least in part"}, {"measurement": "endogenous glycation of some proteins", "setting": "[10]; low glucose medium (5 mM)", "value": "inhibits"}]}]}
